# In patent publication US20220081676A1, “MICROFLUIDIC DEVICES FOR TATTOO PIGMENT SAFETY” (priority 2019, published 2022):
# Where two headings read alike, the source gives them in different places.
# Assays:
# Static Skin-Chip Model = assay: Toxicity of pigments tattooed on Static Skin-Chip Model, metabolic activity (Presto Blue); assay type: cell-based, human
# From the text: Tattooed on D4 at ALI, N=4 per condition Hybrid Transwells.
# Metabolic Activity (Presto Blue) of Blue15 Pigment. Tattooed on D4 at ALI. N=4 per condition Hybrid Transwells.
# Thus, readouts include assessing recovery after damage. Readouts include but are not limited to Invitrogen PrestoBlue™.
# Static Skin models = assay type: cell-based, human
# From the text: Red tattoo pigments known to cause some level of toxicity following sun exposure.
# D12 ALI (D8 post-tattoo) N=4 per condition. Hybrid Transwells.
# Red tattoo pigments known to cause some level of toxicity following sun exposure. […] D12 ALI (D8 post-tattoo) N=4 per condition. Hybrid Transwells.
# Safety Assessment of Red122 Pigment—Phototoxicity Assay (Viability) Red tattoo pigments known to cause some level of toxicity following sun exposure. […] Chlorpromazine (CPZ), known to be induce phototoxicity and photosensitization, was used as a positive control.
# Barrier Function: Permeability of Cascade Blue (3000 MW); Quantification of skin permeability to Cascade Blue by topical deposition of 50 μl of 10 μM Cascade Blue, followed by 1 hour static incubation. Bottom channel medium collected and Papp determined by quantification of Cascade Blue present in the sampled medium using a plate-reader. […] Permeability of Testosterone and Caffeine; Requires mass spectrometer for detection. These values can be correlated to in vivo skin. Topical Compound Test for Toxicity, Corrosivity, Irritancy, Phototoxicity viability assays performed are MTT or Presto Blue. Corrosivity: a material is considered corrosive if cell viability is <50% after 3 min exposure or <15% after 60 min exposure. […]
# [1] = system: Static Skin models (Hybrid Transwells); assay: Phototoxicity and photosensitization to Red122: cytokines release; assay type: cell-based, human; conditions: tattooed with 35% w/v; for inflammatory and sensitization cytokines (IL-1Beta and IL-18) following UVA exposure: UVA on D11 ALI (D7 post-tattoo)
# [2] = system: Kidney Proximal Tubule-Chip; assay: Assessment of tattoo pigment toxicity on the Kidney Proximal Tubule-Chip; assay type: cell-based, human
# Description: Channel: Renal Proximal Tubule Epithelial Cells
# Bottom Channel: Renal Microvascular Endothelial Cells
# Morphology: BF Imaging From Effluent: LDH, ROS
# Terminal Endpoints From Lysates: Caspase, ALP
# ECM-coating. Sulfo-sanpah (Covachem, #13414), ER1 (0.5 mg/ml) in ER2 50 mM HEPES buffer; Collagen IV (BD Corning, 50 μg/mL in Dulbecco's phosphate-buffered saline (DPBS); and Matrigel (BD Corning, reduced growth factor, 100 ug/ml DPBS). Cells. Top channel. Human Proximal Tubular Epithelial Cells (Lonza, RPTEC #CC-2553); and Bottom channel. Primary Human Glomerular microvascular Endothelial cells (Cell Systems. ACBRI 128), expand to P7 (e.g. passage 7). Media. Renal Epithelial Growth Medium (REGM™ Lonza, CC-3190) for Proximal tubule cells or REGM2 (from PromoCell, Cat #C-26130); and Kidney endothelial cell medium (Cell Systems, 4ZO-500). Chip. High shear chip; under flow shear; and Tall channel closed top-chip. Experimental reagents. Collagen IV coated 6 well plate; and Corning BioCoat Collagen IV multiwall plates, Corning #354428.
# One brief exemplary timeline is described as: Day −2: Chip coating; Day −1: Seeding endothelial cells; Day 0: Seeding proximal tubule epithelial cells; Day 0-7: Maintain chips; Day 7: Start Experiment (Study), e.g. 72 hours; and Day 10: End 72 hour Experiment (Study). Exemplary readouts include but are not limited to: Phase contrast microscopic images; immunofluorescent images; barrier function (in particular for kidney-chips, etc.); and Troponin I release (in particular for heart-chips, i.e. cardiac-chips).
# Outflow from chips, (e.g. S1—closed top chip; and high shear (HS) chip) was collected for certain readouts. For reference, kidney endothelial media contains 5% FBS while the kidney epithelial media contains 0.5% FBS.
# [3] = system: epidermal cells in a Skin-Chip (microfluidic OT-chip)
# From the text: In some embodiments, a live-dead staining is used for determining cell viability.
# [4] = system: proximal tubular epithelium; assay: Gentamicin-induced toxicity on Renal-Kidney Proximal Tubule-Chip; assay type: cell-based, human; conditions: 10 mM for 48 hours
# Description: Gentamicin treatment is used for inducing damage as a positive control compared to controls without Gentamicin.
# Readouts include but are not limited to: Gentamicin-induced toxicity after exposure to 10 mM of gentamicin for 48 hours.
# Static Skin model = assay type: cell-based, human
# Description: Tissue robustness evaluated by determining the ET50 value following topical exposure to 1% TritonX-100.
# (§1) In one embodiment, tissue robustness was evelauated determining the ET50 value following topical exposure to a test irritant, 1% TritonX-100. Irritation potential is calculated in terms of the “ET50” value: the time taken, in minutes, for a test compound to reduce the viability of the skin model to 50% compared with negative controls. […] Thus, at least one commercially obtained and tested skin equivalent model became permeable faster than one embodiment of a static skin model described herein.
# (§2) Immunostaining (IF):Biomarkers characteristic of the stratified epidermal layers should include: • Basement membrane markers: collagen IV, Laminin 5 • Stratum basal: Keratin 14 • Stratum spinosum: Keratin 10 • Stratum granulosum: Filaggrin • Stratum corneum: Involucrin, Loricrin Quality control of tissue reproducibility from sample to sample and lot to lot can also be established by comparison of ET50 values to a baseline value. Example provided from MatTek for their baseline ET50 value on EpiDerm200—average 6.82 h. Exposure to 1.0% Triton X-100 topically over 12 h.
# EpiDerm200 from MatTek [5] = assay: ET50 following topical exposure to Triton X-100, EpiDerm200 from MatTek; assay type: cell-based; conditions: skin equivalent model on the market
# Description: as §1, §2
# [6] = system: Static Skin model (Hybrid Transwells); assay: Skin irritation: release of associated cytokines after topical Triton X-100, Hybrid Transwells; assay type: cell-based, human; conditions: topical exposure
# Description: D11 ALI. N=3 per condition Hybrid Transwells.
# Method 1: ET50 values determined by MTT or Presto Blue assay will define the class of irritancy based on in vivo classification (see table below). Topical exposures will include 3 exposure times of 2 h, 5 h and 18 h to 100 ul or 100 mg of a test material. Positive control include 5% SDS and 1% Triton X-100. Method 2: a material is considered an irritant is viability is <50% after 1 h topical exposure to 30 ul or 25 mg/of test material (OECD TG 439) Method 3: a material is considered an irritant if there is an increase in the following cytokines compared to control by ELISA is indicative of skin irritant—IL-1alpha, IL-8, prostaglandin PGE2. MatTek Irritancy protocol
# EpiDerm200 from MatTek [7] = conditions: cited from earlier work
# Liver-Chip = assay: Assessment of tattoo pigment toxicity on the Liver-Chip; conditions: 5 microM
# Description: Injury to liver function is indicated by […] in albumin Secretion. […] Other functional changes or mechanistic routes may be detectable through additional assays
# Pigment with a low concentration of 0.03% of pigment diluent is flowed through the chip (same concentrations both top and bottom channels simultaneously). […] In future applications, we also plan to explore potential toxicity of pigment diluent formulations (without pigments).
# Both top and bottom channels were treated
# Embodiments of Liver-Chips include: Co-culture (Hepatocytes+LSECs); Tri-culture (Hepatocytes+LSECs+Kupffer cells); Quad-culture (Hepatocytes+LSECs+Kupffer cells+Stellate cells); Human Liver-Chip; Rat Liver-Chip; Dog Liver-Chip; etc.
# [8] = system: Skin-Chip (microfluidic OT-chip); conditions: human
# From the text: Readouts include but are not limited to Invitrogen PrestoBlue™. Invitrogen PrestoBlue™ Cell Viability Reagent, e.g. Fisher Scientific, Catalog number: A1326, is an exemplary metabolic Assay Reagent. When added to cells, the PrestoBlue® reagent is modified by the reducing environment of a viable cell and turns red in color, becoming highly fluorescent. This color change can be detected using fluorescence or absorbance measurements.
# Human Liver-Chip = assay: Effect of Bosentan on albumin secretion, Human Liver-Chip; assay type: cell-based; conditions: in vivo relevant doses
# From the text: (§3) Readouts include but are not limited to: albumin secretion, Effect of Bosentan on Albumin Secretion; Inhibition of BSEP Transporter; Bile acid accumulation Cholyl-lysyl-fluorescein (CLF); BSEP substrate etc.
# Dog Liver-Chip = assay: Effect of Bosentan on albumin secretion, Dog Liver-Chip; assay type: cell-based; conditions: in vivo relevant doses
# From the text: as §3
molecule,measurement,setting,value
Cc1ccc2[nH]c3cc4c(=O)c5cc(C)ccc5[nH]c4cc3c(=O)c2c1 [Red122],"viability (metabolic activity, Presto Blue)","Static Skin-Chip Model; 24 h post-tattoo, tattooed on D4 at ALI, Hybrid Transwells",decrease in viability with increasing Red122 concentration
same,skin recovery (viability),Static Skin-Chip Model; over 8 days post-tattoo,Skin recovery observed
same,viability from healthy after UVA (phototoxicity),Static Skin models,85%
same,inflammatory and sensitization cytokines (IL-1Beta and IL-18) following UVA exposure,[1],both cytotoxicity and sensitization following UVA exposure
same,inflammatory and sensitization cytokines (IL-1Beta and IL-18) following UVA exposure,[1]; listed as Red,increase in both cytokines
same,effect as a skin sensitizer (cytokine release),[1]; no UVA,no effect as a skin sensitizer
same,secretion of inflammatory cytokine,[1]; no UVA,increased secretion of inflammatory cytokine
same,caspase activity,[2]; between the different doses,No significant differences were noted in caspase activity
same,kidney toxicity via LDH release,[2]; between the different doses,No significant changes in LDH
same,ROS activity,[2]; between the different groups,No significant differences were observed in the ROS activity
same,ALP activity (kidney function),[2]; different doses,No significant differences were observed in the ALP activity
CC(O)C(=O)O (centres unmarked) [lactic acid],"cell death by DRAQ7 staining, dead cells/mm^2",[3],statistically significant death of skin cells
gentamicin,LDH in medium effluent,[4],significant increase
same,NAG in medium effluent,[4],significant increase
same,ROS in medium effluent,[4],significant increase
same,active caspase-3 in cells lysates,[4],increase
same,microscopic analysis of the proximal tubular epithelium,[4],structural damage
Triton X-100,ET50,Static Skin model,11 h
same,ET50,EpiDerm200 from MatTek [5],7 h
same,expression of inflammatory cytokine IL-1B,[6],increase in expression
same,IL-18 (expressed following skin sensitization),[6]; D11 ALI,no significant increase
same,expression of inflammatory cytokine IL-1alpha,[6]; D11 ALI,increase in expression
same,"baseline ET50 value, average","EpiDerm200 from MatTek [7]; EpiDerm200, 1.0% Triton X-100 topically, provided from MatTek",6.82 h
same,EPI-200 Triton ET-50,EpiDerm200 from MatTek [7]; Year 1995,6.65 h
same,EPI-200 Triton ET-50,EpiDerm200 from MatTek [7]; Year 1996,6.74 h
same,EPI-200 Triton ET-50,EpiDerm200 from MatTek [7]; Year 1997,6.78 h
same,EPI-200 Triton ET-50,EpiDerm200 from MatTek [7]; Year 1998,7.24 h
same,EPI-200 Triton ET-50,EpiDerm200 from MatTek [7]; Year 1999,6.75 h
same,EPI-200 Triton ET-50,EpiDerm200 from MatTek [7]; Year 2000 (through September 2000),6.76 h
CN[C@@H]1C[C@H]2O[C@@](C)([C@@H]1OC)n1c3ccccc3c3c4c(c5c6ccccc6n2c5c31)C(=O)NC4 [staurosporine],"ATP synthesis, effluent from the bottom channels",Liver-Chip,loss of ATP synthesis
same,"albumin secreted over time, effluent from the top channel",Liver-Chip,loss of secreted albumin
same,hepatocyte cell morphology,Liver-Chip; after 4 days of treatment,hepatocyte damage
O=C(O)CO [glycolic acid],metabolic activity (PrestoBlue) as percentage of untreated control,[8],statistically significant reduction in activity compared to the activity of citric acid (0.6M) and lactic acid
COc1ccccc1Oc1c(NS(=O)(=O)c2ccc(C(C)(C)C)cc2)nc(-c2ncccn2)nc1OCCO [Bosentan],"albumin secretion, dose response",Human Liver-Chip,dose response effects
same,"albumin secretion, dose response",Dog Liver-Chip,dose response effects
